Results published in US7727275B2, “Drug-delivery endovascular stent and method of forming the same” (Biosensors International Group, Ltd., priority 2002, dated 2010).

Tested on: restenosis (neointimal formation) in severely injured coronary vessels
Experiment: Swine restenosis model, "high injury" experiment: QCA and morphometric analysis 28 days after stent implant
Format: in vivo, out-bred juvenile swine
Description: The studies are summarized in Example 4.
Briefly, the studies compare the extent of restenosis at 28 days following stent implantation, in bare metal stents, polymer-coated stents, and polymer coated stents containing high or low concentrations of sirolimus (rapamycin) and everolimus.
It was reasoned that the most challenging treatment condition for the drug eluting stent is a severely injured vessel, as it is known that the degree of restenosis (neointimal formation) increases directly with extent of vessel injury. […]
Drug-eluting stents using a metal wire-mesh scaffold of a corrugated ring design (i.e. S-Stent) and polymer coating were implanted in out-bred juvenile swine (alternately Yucatan Minipigs for implant studies lasting longer than 28 days), using different dosings of either the drug everolimus or the drug sirolimus. At time of implant, Quantitative Coronary Angiography (QCA) was performed to measure the diameter of the vessels both before and after stent implantation. […]
A computerized imaging system Image Pro Plus 4.0 through an A.G. Heinze slide microscope for a PC-based system was used for histomorphometric measurements of: • 1. […] To quantify the degree of vascular injury, a score based on the amount and length of tear of the different wall structures was used. […]

With `CO[C@H]1C[C@@H]2CC[C@@H](C)[C@@](O)(O2)C(=O)C(=O)N2CCCC[C@H]2C(=O)O[C@H]([C@H](C)C[C@@H]2CC[C@@H](OCCO)[C@H](OC)C2)CC(=O)[C@H](C)/C=C(\C)[C@@H](O)[C@@H](OC)C(=O)[C@H](C)C[C@H](C)/C=C/C=C/C=C/1C` [everolimus, 40-0-(2-hydroxyl)ethyl-rapamycin] the “extent of restenosis / neointima formation (in words)” value was “better than, or at least equivalent to the 180 microgram dosage of sirolimus”.
